From patent US20250072419A1, “SYSTEMS AND METHODS FOR APPLICATION OF ACTIVE INGREDIENTS TO CANNABIS” (Hazel Technologies, Inc., priority 2020, published 2025)
Values joined by “and” are separate entries in the source; they are usually repeats but may differ in a detail not shown here. Equal values may be shown once.

Key:
Format in all cases: in vivo
[1] = system: Cannabis variety B; assay: total biomass and flower biomass of dried plants after 1-MCP treatment, variety B
Method: (§1) To examine the effect of 1-MCP exposure, six genetic replicates of a first variety of Cannabis (variety ‘A’) and six genetic replicates of a second variety of Cannabis (variety ‘B’) were grown under greenhouse conditions for a period of four weeks, then transferred to growth chamber conditions with a 12 hour photoperiod for three weeks to induce flower formation. Variety A was from a hybrid strain of 15% sativa and 85% indica bred by BC Bud Depot under the strain name Shiatsu. Variety B was from a hybrid strain of 50% sativa and 50% indica bred by Spectrum under the strain name Jack's Girl. Greenhouse conditions and growth chamber conditions are detailed in Table 1. Next, three of the genetic replicates of each variety were treated with 1-MCP via fumigation in a 295 cubic foot growth chamber for 18 hours using a source of the 1-MCP. The source of the 1-MCP was 250 g of a composition comprising 1-MCP in an amount of 2 wt % loaded in activated carbon as a porous adsorbent material. The treatment was initially activated via the addition of 0.07 gallons of liquid water to the composition, which accelerated release of 1-MCP and established an atmosphere within the growth chamber of 36.3 ppm 1-MCP. Twelve days later, the 18-hour 1-MCP treatment was repeated, and the treatment was repeated again the next day. Control groups of each variety were watered and exposed to identical conditions except that they were never fumigated with 1-MCP.
(§2) To examine the effect of 1-MCP exposure, the genetic replicates from variety A and variety B of Example 1 were measured (i) after plants were dried and (ii) after plants were dried and trimmed, reflecting flower biomass. Measurement (i) provided the total biomass of each genetic replicate, while measurement (ii) provided the mass of consumer-ready product. The drying of the plants was performed by placing the plants into a drying chamber (90° F., 16% relative humidity) for 72 hours prior to measurement and/or trimming.

[2] = system: Cannabis variety B; assay: cannabinoid profile of floral tissue by HPLC after 1-MCP treatment, variety B
Method: as §1, with “The treatment was initially activated via the addition of 0.07 gallons of liquid water to the composition, which accelerated release of 1-MCP and established an atmosphere within the growth chamber of 36.3 ppm 1-MCP. Twelve days later, the 18-hour 1-MCP treatment was repeated, and the treatment was repeated again the next day. Control groups of each variety were watered and exposed to identical conditions except that they were never fumigated with 1-MCP.” left out
Cannabinoids concentrations were measured in the genetic replicates from variety A and variety B of Example 1 at three time-points: T1—two days before the first treatment with 1-MCP; T2—one week after the first treatment with 1-MCP; and T3—after all 1-MCP treatments, once the genetic replicates had reached full plant maturity. […]

[3] = system: Cannabis variety A; assay: total biomass and flower biomass of dried plants after 1-MCP treatment, variety A
Method: as §1, §2

[4] = system: female Cannabis plants, variety 'B' (Jack's Girl, 50% sativa and 50% indica); assay: development of male sex organs on female plants after 1-MCP fumigation, variety B; settings: for Flower clusters displaying male organs 30 days after treatment 3 (%): 36.3 ppm 1-MCP
Method: as §1
Stamens were not observed in variety ‘A’ genetic replicates or in either control group.

[5] = system: Cannabis variety A; assay: cannabinoid profile of floral tissue by HPLC after 1-MCP treatment, variety A
Method: as §1
Cannabinoids concentrations were measured in the genetic replicates from variety A and variety B of Example 1 at three time-points: T1—two days before the first treatment with 1-MCP; T2—one week after the first treatment with 1-MCP; and T3—after all 1-MCP treatments, once the genetic replicates had reached full plant maturity. At each timepoint, three samples of floral tissue were collected from each genetic replicate and frozen overnight. To prepare samples of floral tissue for high performance liquid chromatography (HPLC) analysis, frozen floral tissue was ground, extracted in HPLC-grade methanol, and filtered. HPLC was performed on the filtered methanol, providing a cannabinoid profile for each sample of floral tissue.
Analysis of Variance (ANOVA) was performed to evaluate the effect of 1-MCP on cannabinoid content under each set of experimental conditions.

[6] = system: female Cannabis plants, variety 'A' (Shiatsu, 15% sativa and 85% indica); assay: development of male sex organs / phenotype on female plants after 1-MCP fumigation, variety A
Method: as §1, with “Control groups of each variety were watered and exposed to identical conditions except that they were never fumigated with 1-MCP.” left out

[7] = Treatment, single specimens, dried and trimmed plants
[8] = Treatment, single specimens, dried plants

In the case of `CC1=CC1` [1-MCP, 1-methylcyclopropene], the “decrease in flower biomass versus control” value [1] is reported as about 2%, the “decrease in total biomass versus control” value [1] is reported as about 2% and the “deleterious effect on the biomass” value [1] is reported as “did not have a deleterious effect”. The “Flower Biomass Group Mean” value ([1]; Treatment, mean of 3 specimens, control mean 102.3) was 100.3 g, the “Total Biomass Group Mean” value ([1]; Treatment, mean of 3 specimens, control mean 118.3) was 115.6 g and the “Flower Biomass” value [1, 7] was 95 g and 106 g and 100 g. For the same molecule, the “Total Biomass” value [1, 8] was 111 g and 121 g and 115 g, the “deleterious effects on the overall profile of cannabinoids” value [2] was “no deleterious effects” and the “total cannabinoid concentration, treated versus control (ANOVA)” value ([2]; mature plants (T3) (FIG. 8)) was “no statistically significant difference”. For the same molecule, the “deleterious effect on the biomass” value [3] was “did not have a deleterious effect”, the “increase in flower biomass over the control group” value [3] was about 10% and the “increase in total biomass over the control group” value [3] was about 22%. For the same molecule, the “Flower Biomass Group Mean” value ([3]; Treatment, mean of 3 specimens, control mean 87.6) was 95.3 g, the “Total Biomass Group Mean” value ([3]; Treatment, mean of 3 specimens, control mean 105) was 118.3 g and the “Flower Biomass” value [3, 7] was 98 g and 90 g. The “Total Biomass” value [3, 8] was 130 g and 120 g and 105 g, the “stamen growth on female floral tissue” value ([4]; 15 days after final fumigation (FIG. 5)) was “presence of multiple stamens” and the “stamen growth on female floral tissue” value ([4]; 19 days after final fumigation (FIG. 6)) was “multiple stamens”. For the same molecule, the “Flower clusters displaying male organs 30 days after treatment 3 (%)” value ([4]; Plant 1, three 18 h fumigations) was 97%, the “Flower clusters displaying male organs 30 days after treatment 3 (%)” value ([4]; Plant 2, three 18 h fumigations) was 100% and the “Flower clusters displaying male organs 30 days after treatment 3 (%)” value ([4]; Plant 3, three 18 h fumigations) was 86%. The “stamen growth on female floral tissue” value ([4]; five days after final fumigation (FIG. 4)) was “further development of stamen growth”, the “flower clusters displaying staminate growth” value ([4]; thirty days after the final 1-MCP treatment) was 80-100% and the “stamen growth on female floral tissue” value ([4]; three days after the final fumigation (FIG. 3)) was “stamens were observed”. The “deleterious effects on the overall profile of cannabinoids” value ([5]; variety A) was “no deleterious effects”, the “THCA, THCVA and CBGA concentrations, treated versus control (ANOVA)” value ([5]; variety A (FIGS. 9A-C)) was “A few statistically significant differences” and the “total cannabinoid concentration, treated versus control (ANOVA)” value ([5]; variety A, mature plants (T3) (FIG. 8)) was “no statistically significant difference”. The “total cannabinoid concentration, treated versus control (ANOVA)” value ([5]; variety A, timepoint T2, one week after the first treatment (FIG. 8)) was “statistically significant difference”, the staminate growth ([6]; variety A genetic replicates treated with 1-MCP) was “Staminate growth was not observed” and the “plants observed to have purple leaves” value ([6]; variety A, three 1-MCP-treated plants (FIG. 7), none of three controls) was “two of three”.
